# Earlier results, collected in patent publication US20100284970A1, “BEN[…] H1 RECEPTOR AND/OR NS4B PROTEIN” (AUSPEX PHARMACEUTICALS, INC., priority 2009, published 2010).
# Molecular target: T1, hepatitis C virus NS4B protein (Hepatitis C virus genotype 1b, UniProt Q9WMX2)
# T1 construct: hepatitis C virus NS4B protein
# Conditions: Einav et al., Nature Biotechnology, 2008, 26, 1019-1027
# T1 sequence (Q9WMX2 1712-1972): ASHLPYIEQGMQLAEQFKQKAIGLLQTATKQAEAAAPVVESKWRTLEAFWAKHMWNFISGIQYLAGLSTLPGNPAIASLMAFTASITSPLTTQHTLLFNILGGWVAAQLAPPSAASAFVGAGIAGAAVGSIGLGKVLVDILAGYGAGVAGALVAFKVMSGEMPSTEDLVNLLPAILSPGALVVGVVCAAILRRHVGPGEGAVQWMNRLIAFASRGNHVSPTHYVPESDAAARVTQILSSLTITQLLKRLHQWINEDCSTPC
smiles,measurement,value
"Clc1ccc(Cn2c(CN3CCCC3)nc3ccccc32)cc1 [Clemizole, 1-[(4-chlorophenyl)methyl]-2-(1-pyrrolidinylmethyl)benzimidazole]",binding of hepatitis C virus RNA to hepatitis C virus NS4B protein,inhibit the binding of hepatitis C virus RNA to hepatitis C virus NS4B protein
